According to patent publication US9751885B2, “Cyclopropanamine compound and use thereof” (Takeda Pharmaceutical Company Limited, priority 2012, dated 2017):
Structures can show the parent of a compound that is named as a salt.

Key:
[1] = target: human LSD1(172-833) (Homo sapiens (Human), UniProt O60341); assay: Measurement of LSD1 inhibitory activity (time-resolved fluorescence, biotin-histone H3 mono methylated K4 peptide); type: biochemical
Method: When the turbidity reached 500 Klett units, the culture temperature was changed to 16° C., IPTG (Isopropyl β-D-1-thiogalactopyranoside) having a final concentration of 0.5 mM was added to induce expression, and the cells were cultured further for 14 hr. The culture medium was centrifuged at 6,000 g for 15 min, and Escherichia coil pellets were recovered.
Using Branson ultrasonic disintegrator, the suspension was disrupted by ultrasonication for 3 min, and centrifuged at 33,000 g for 60 min, and the supernatant was recovered. […] It was concentrated to 10 mL with AmiconUltra (NWCO 30K) (Millipore Japan), and purified with HiLoad 26/60 Superdex 200 pg column (GE Healthcare) equilibrated with Buffer A to give hLSD1 purified product (8.4 mg). The protein concentration of hLSD1 was measured by BCA Protein Assay Kit (Thermo Fisher Scientific K.K.) using bovine serum albumin as the standard.
(5) Measurement of LSD1 Inhibitory Activity
After reaction at room temperature for 5 min, 1 mM 2-PCPA solution was added 5 μL to terminate the reaction. A detection solution ([…] potassium fluoride, 0.1% BSA) containing europium-labeled anti-histone H3 antibody (Wako Pure Chemical Industries, Ltd.) and Streptavidin-XL665 (Cisbio) was further added by 5 μL, and the mixture was left standing for 60 min.

[2] = target: MAO-A enzyme (Homo sapiens (Human), UniProt P21397); assay: Measurement of MAO-A inhibitory activity (MAO-Glo Assay); type: biochemical
MAO-A enzyme, sequence (P21397 whole entry): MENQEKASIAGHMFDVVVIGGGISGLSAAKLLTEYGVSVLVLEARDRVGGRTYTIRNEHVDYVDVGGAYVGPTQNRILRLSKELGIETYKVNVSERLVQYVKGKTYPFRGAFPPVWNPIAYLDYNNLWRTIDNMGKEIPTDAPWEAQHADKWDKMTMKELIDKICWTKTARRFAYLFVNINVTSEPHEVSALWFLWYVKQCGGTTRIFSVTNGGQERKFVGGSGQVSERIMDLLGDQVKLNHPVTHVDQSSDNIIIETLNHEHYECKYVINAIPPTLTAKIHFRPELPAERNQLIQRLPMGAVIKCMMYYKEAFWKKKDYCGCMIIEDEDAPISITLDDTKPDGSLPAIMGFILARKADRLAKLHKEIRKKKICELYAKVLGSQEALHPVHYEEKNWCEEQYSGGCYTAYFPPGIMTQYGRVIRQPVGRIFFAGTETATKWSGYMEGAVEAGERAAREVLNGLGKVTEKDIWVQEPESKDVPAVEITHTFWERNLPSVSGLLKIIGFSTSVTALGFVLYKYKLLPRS

[3] = target: MAO-B enzyme (Homo sapiens (Human), UniProt P27338); assay: Measurement of MAO-B inhibitory activity (MAO-Glo Assay); settings: read-out: MAO-B IC50 value;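 note: luminescence read-out, compound preincubated 10 min with enzyme then reacted 60 min at room temperature, inhibition relative to enzyme reaction without compound, blank lacking enzyme and compound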
MAO-B enzyme, sequence (P27338 whole entry): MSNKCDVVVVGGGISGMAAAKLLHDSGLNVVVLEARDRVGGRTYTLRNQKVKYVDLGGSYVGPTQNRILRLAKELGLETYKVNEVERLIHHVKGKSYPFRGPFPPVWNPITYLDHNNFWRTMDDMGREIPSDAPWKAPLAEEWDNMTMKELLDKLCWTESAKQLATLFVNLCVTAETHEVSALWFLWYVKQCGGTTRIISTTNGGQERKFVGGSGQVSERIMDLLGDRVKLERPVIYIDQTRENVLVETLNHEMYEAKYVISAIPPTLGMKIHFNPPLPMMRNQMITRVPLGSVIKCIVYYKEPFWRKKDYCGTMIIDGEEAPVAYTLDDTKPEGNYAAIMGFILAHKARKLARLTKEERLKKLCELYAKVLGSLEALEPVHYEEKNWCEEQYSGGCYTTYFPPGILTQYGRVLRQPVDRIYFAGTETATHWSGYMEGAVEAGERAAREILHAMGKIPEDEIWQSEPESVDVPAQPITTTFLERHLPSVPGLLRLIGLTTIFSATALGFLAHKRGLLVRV
Method: The MAO-B inhibitory activity evaluation described below followed the protocol of MAO-Glo (registered trademark) Assay of Promega KK.
A test compound dissolved in 4% DMSO was added by 12.5 μL to 25 μL reaction solution (100 mM HEPES (pH 7.5), 5% glycerol, 10% DMSO) containing 400 ng of MAO-B enzyme (Sigma-Aldrich Co. LLC.), and the mixture was reacted at room temperature for 10 min. […] After reaction at room temperature for 60 min, Luciferine detection reagent (Promega KK) (50 μL) was added to terminate the reaction. After reaction at room temperature for 20 min with stirring, the luminescence was measured by Envision (PerkinElmer). The MAO-B inhibitory rate (%) of the test compound was calculated by the following formula. inhibitory rate(%)=(1−(test compound count−blank)÷(control−blank))×100
The count of the MAO-B enzyme reaction mixture under compound non-addition conditions is indicated as control, and the count under compound non-addition and MAO-B enzyme non-addition conditions is indicated as blank.

O=C(NCc1ccc(N2CCCC2=O)cc1)c1ccc([C@@H]2C[C@H]2NCC2CC2)cc1 (relative stereo) [Example 27, 4-(trans-2-((cyclopropylmethyl)amino)cyclopropyl)-N-(4-(2-oxopyrrolidin-1-yl)benzyl)benzamide trifluoroacetate]
IC50 [1]: < 0.1 µM | IC50 [2]: > 10 µM | IC50 [3]: > 10 µM

O=C(NCc1ccc(N2CCOCC2)cc1)c1ccc([C@@H]2C[C@H]2NCC2CC2)cc1 (relative stereo) [Example 28, 4-(trans-2-((cyclopropylmethyl)amino)cyclopropyl)-N-(4-(morpholin-4-yl)benzyl)benzamide bis(trifluoroacetate)]
IC50 [1]: < 0.1 µM | IC50 [2]: > 10 µM | IC50 [3]: > 10 µM

O=C(NCc1cccc(Oc2cnccn2)c1)c1ccc([C@@H]2C[C@H]2NCC2CC2)cc1 (relative stereo) [Example 29, 4-(trans-2-((cyclopropylmethyl)amino)cyclopropyl)-N-(3-(pyrazin-2-yloxy)benzyl)benzamide bis(trifluoroacetate)]
IC50 [1]: < 0.1 µM | IC50 [2]: 7.3 µM | IC50 [3]: > 10 µM

O=C(NCc1cccc2c1OCCO2)c1ccc([C@@H]2C[C@H]2NCC2CC2)cc1 (relative stereo) [Example 30, 4-(trans-2-((cyclopropylmethyl)amino)cyclopropyl)-N-(2,3-dihydro-1,4-benzodioxin-5-ylmethyl)benzamide trifluoroacetate]
IC50 [1]: < 0.1 µM | IC50 [2]: > 10 µM | IC50 [3]: > 10 µM

CC(C)(C)c1ccc(CN[C@@H]2C[C@H]2c2ccc(C(=O)NCc3ccccc3)cc2)cc1 (relative stereo) [Example 31, N-benzyl-4-(trans-2-((4-tert-butylbenzyl)amino)cyclopropyl)benzamide trifluoroacetate]
IC50 [1]: < 0.1 µM | IC50 [2]: 4 µM | IC50 [3]: > 10 µM

COc1ccccc1CN[C@@H]1C[C@H]1c1ccc(C(=O)NCc2ccccc2)cc1 (relative stereo) [Example 32, N-benzyl-4-(trans-2-((2-methoxybenzyl)amino)cyclopropyl)benzamide trifluoroacetate]
IC50 [1]: < 0.1 µM | IC50 [2]: > 10 µM | IC50 [3]: > 10 µM

Cc1ccccc1CN[C@@H]1C[C@H]1c1ccc(C(=O)NCc2ccccc2)cc1 (relative stereo) [Example 33, N-benzyl-4-(trans-2-((2-methylbenzyl)amino)cyclopropyl)benzamide trifluoroacetate]
IC50 [1]: < 0.1 µM | IC50 [2]: > 10 µM | IC50 [3]: > 10 µM

Cc1ccc(CN[C@@H]2C[C@H]2c2ccc(C(=O)NCc3ccccc3)cc2)cc1 (relative stereo) [Example 34, N-benzyl-4-(trans-2-((4-methylbenzyl)amino)cyclopropyl)benzamide trifluoroacetate]
IC50 [1]: < 0.1 µM | IC50 [2]: 4.4 µM | IC50 [3]: > 10 µM

COc1ccc(CN[C@@H]2C[C@H]2c2ccc(C(=O)NCc3ccccc3)cc2)cc1 (relative stereo) [Example 35, N-benzyl-4-(trans-2-((4-methoxybenzyl)amino)cyclopropyl)benzamide trifluoroacetate]
IC50 [1]: < 0.1 µM | IC50 [2]: 3.1 µM | IC50 [3]: > 10 µM

N#Cc1ccc(CN[C@@H]2C[C@H]2c2ccc(C(=O)NCc3ccccc3)cc2)cc1 (relative stereo) [Example 36, N-benzyl-4-(trans-2-((4-cyanobenzyl)amino)cyclopropyl)benzamide trifluoroacetate]
IC50 [1]: < 0.1 µM | IC50 [2]: 4.3 µM | IC50 [3]: > 10 µM

COc1cccc(CN[C@@H]2C[C@H]2c2ccc(C(=O)NCc3ccccc3)cc2)c1 (relative stereo) [Example 37, N-benzyl-4-(trans-2-((3-methoxybenzyl)amino)cyclopropyl)benzamide trifluoroacetate]
IC50 [1]: < 0.1 µM | IC50 [2]: 4.5 µM | IC50 [3]: > 10 µM

O=C(NCc1ccccc1)c1ccc([C@@H]2C[C@H]2NCc2ccc(C(F)(F)F)cc2)cc1 (relative stereo) [Example 38, N-benzyl-4-(trans-2-((4-(trifluoromethyl)benzyl)amino)cyclopropyl)benzamide trifluoroacetate]
IC50 [1]: < 0.1 µM | IC50 [2]: 2.2 µM | IC50 [3]: > 10 µM

O=C(NCc1ccccc1)c1ccc([C@@H]2C[C@H]2NCc2ccccc2F)cc1 (relative stereo) [Example 39, N-benzyl-4-(trans-2-((2-fluorobenzyl)amino)cyclopropyl)benzamide trifluoroacetate]
IC50 [1]: < 0.1 µM | IC50 [2]: 6.6 µM | IC50 [3]: > 10 µM

COc1ccc(F)c(CN[C@@H]2C[C@H]2c2ccc(C(=O)NCc3ccccc3)cc2)c1 (relative stereo) [Example 40, N-benzyl-4-(trans-2-((2-fluoro-5-methoxybenzyl)amino)cyclopropyl)benzamide trifluoroacetate]
IC50 [1]: < 0.1 µM | IC50 [2]: > 10 µM | IC50 [3]: > 10 µM

COc1cc(Cl)ccc1CN[C@@H]1C[C@H]1c1ccc(C(=O)NCc2ccccc2)cc1 (relative stereo) [Example 41, N-benzyl-4-(trans-2-((4-chloro-2-methoxybenzyl)amino)cyclopropyl)benzamide trifluoroacetate]
IC50 [1]: < 0.1 µM | IC50 [2]: 6.6 µM | IC50 [3]: > 10 µM

CN(C)c1ccccc1CN[C@@H]1C[C@H]1c1ccc(C(=O)NCc2ccccc2)cc1 (relative stereo) [Example 42, N-benzyl-4-(trans-2-((2-(dimethylamino)benzyl)amino)cyclopropyl)benzamide bis(trifluoroacetate)]
IC50 [1]: < 0.1 µM | IC50 [2]: 3.4 µM | IC50 [3]: > 10 µM

N#Cc1cccc(CN[C@@H]2C[C@H]2c2ccc(C(=O)NCc3ccccc3)cc2)c1 (relative stereo) [Example 43, N-benzyl-4-(trans-2-((3-cyanobenzyl)amino)cyclopropyl)benzamide trifluoroacetate]
IC50 [1]: < 0.1 µM | IC50 [2]: 1.5 µM | IC50 [3]: > 10 µM

O=C1COc2ccc(CN[C@@H]3C[C@H]3c3ccc(C(=O)NCc4ccccc4)cc3)cc2N1 (relative stereo) [Example 44, N-benzyl-4-(trans-2-(((3-oxo-3,4-dihydro-2H-1,4-benzoxazin-6-yl)methyl)amino)cyclopropyl)benzamide trifluoroacetate]
IC50 [1]: < 0.1 µM | IC50 [2]: 1.3 µM | IC50 [3]: > 10 µM

O=C(NCc1ccccc1)c1ccc([C@@H]2C[C@H]2NCc2ccc(-c3cnccn3)cc2)cc1 (relative stereo) [Example 45, N-benzyl-4-(trans-2-((4-(pyrazin-2-yl)benzyl)amino)cyclopropyl)benzamide bis(trifluoroacetate)]
IC50 [1]: < 0.1 µM | IC50 [2]: 1.7 µM | IC50 [3]: > 10 µM

O=C(NCc1ccccc1)c1ccc([C@@H]2C[C@H]2NCc2cccs2)cc1 (relative stereo) [Example 46, N-benzyl-4-(trans-2-((2-thienylmethyl)amino)cyclopropyl)benzamide trifluoroacetate]
IC50 [1]: < 0.1 µM | IC50 [2]: 1.8 µM | IC50 [3]: > 10 µM

Cc1ccsc1CN[C@@H]1C[C@H]1c1ccc(C(=O)NCc2ccccc2)cc1 (relative stereo) [Example 47, N-benzyl-4-(trans-2-(((3-methyl-2-thienyl)methyl)amino)cyclopropyl)benzamide trifluoroacetate]
IC50 [1]: < 0.1 µM | IC50 [2]: 5 µM | IC50 [3]: > 10 µM

Cc1ccc(CN[C@@H]2C[C@H]2c2ccc(C(=O)NCc3ccccc3)cc2)s1 (relative stereo) [Example 48, N-benzyl-4-(trans-2-(((5-methyl-2-thienyl)methyl)amino)cyclopropyl)benzamide trifluoroacetate]
IC50 [1]: < 0.1 µM | IC50 [2]: 2.6 µM | IC50 [3]: > 10 µM

Cc1csc(CN[C@@H]2C[C@H]2c2ccc(C(=O)NCc3ccccc3)cc2)c1 (relative stereo) [Example 49, N-benzyl-4-(trans-2-(((4-methyl-2-thienyl)methyl)amino)cyclopropyl)benzamide trifluoroacetate]
IC50 [1]: < 0.1 µM | IC50 [2]: 1.8 µM | IC50 [3]: > 10 µM

N[C@@H]1C[C@H]1c1ccc(C(=O)Nc2ccc(-c3ncccn3)cc2)cc1 (relative stereo) [Example 50, 4-(trans-2-aminocyclopropyl)-N-(4-(pyrimidin-2-yl)phenyl)benzamide dihydrochloride]
IC50 [1]: < 0.1 µM | IC50 [2]: 0.2 µM | IC50 [3]: > 10 µM

Cn1cc(NC(=O)c2ccc([C@@H]3C[C@H]3N)cc2)cn1 (relative stereo) [Example 51, 4-(trans-2-aminocyclopropyl)-N-(1-methyl-1H-pyrazol-4-yl)benzamide dihydrochloride]
IC50 [1]: < 0.1 µM | IC50 [2]: 0.83 µM | IC50 [3]: > 10 µM

O=C(Nc1ccc(-c2ncccn2)cc1)c1ccc([C@@H]2C[C@H]2NCC2CC2)cc1 (relative stereo) [Example 52, 4-(trans-2-((cyclopropylmethyl)amino)cyclopropyl)-N-(4-(pyrimidin-2-yl)phenyl)benzamide dihydrochloride]
IC50 [1]: < 0.1 µM | IC50 [2]: > 10 µM | IC50 [3]: > 10 µM
